Measurements taken from patent US11180462B2, “Microbiocidal oxadiazole derivatives” (SYNGENTA PARTICIPATIONS AG, priority 2015, dated 2021).

Tests used:
[1] = system: Phakopsora Pachyrhizi; assay: Fungicidal activity against Phakopsora pachyrhizi / soybean / leaf disc preventative (Asian soybean rust); type: in vivo; conditions: foliar, 200 ppm in the applied formulation, soybean leaf disks, compared to untreated control leaf disks, read-out: disease control
Procedure, shortened: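 Preventative soybean leaf-disc test: discs on water agar sprayed with diluted formulated compound, inoculated one day later with spores on the lower surface. Held 24–36 h dark at 20°C, 75% rh, then 12 h light/day; percent disease control versus untreated discs scored 12–14 days after application.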

[2] = system: Glomerella lagenarium (Colletotrichum lagenarium); assay: Fungicidal activity against Glomerella lagenarium (Colletotrichum lagenarium) liquid culture / cucumber / preventative (anthracnose); type: cell-based; conditions: Colletotrichum orbiculare; 20 ppm in the applied formulation; liquid culture (PDB), growth inhibition measured photometrically after 3 to 4 days; compared to untreated control; read-out: disease control
Procedure, shortened: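 Photometric read-out of fungal growth after 2–7 days, expressed as percent antifungal activity versus untreated check. Cryo-stored conidia in PDB; compound at 20 ppm; dark, 24 °C, 96% RH.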

[3] = system: Puccinia recondita f. Sp. Tritici; assay: Fungicidal activity against Puccinia recondita f. sp. tritici / wheat / leaf disc preventative (brown rust); type: in vivo; conditions: foliar, 200 ppm in the applied formulation, wheat leaf segments, preventative, compared to untreated control leaf disks, read-out: disease control
Procedure, shortened: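 Preventative leaf-segment test, wheat cv. Kanzler on water agar. Spray compound at 200 ppm, inoculate with spores 1 day later; 19° C., 75% rh, 12/12 h light. Read-out: % disease control vs untreated, 7 to 9 days after application.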

[4] = system: Puccinia recondita f. Sp. Tritici; assay: Fungicidal activity against Puccinia recondita f. sp. tritici / wheat / leaf disc curative (brown rust); type: in vivo; conditions: foliar, 24 h, 200 ppm in the applied formulation, wheat leaf segments, curative (applied 1 day after inoculation), compared to untreated control leaf disks, read-out: disease control
Procedure, shortened: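 Inoculate cv. Kanzler segments on agar; hold dark, 19° C, 75% RH. Spray diluted formulated compound at day 1. Incubate 12 h light/12 h dark, same temperature and humidity; score % control vs untreated 6–8 days later.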

CCN(Cc1ccc(-c2noc(C(F)(F)F)n2)cc1)C(=O)C1OCCO1 [Compound 1.513, N-ethyl-N-[[4-[5-(trifluoromethyl)-1,2,4-oxadiazol-3-yl]phenyl]methyl]-1,3-dioxolane-2-carboxamide]
≥ 80%: pest or weed control at 200 ppm [1] | inhibition of growth at 20 ppm [2] | pest or weed control at 200 ppm [3] | pest or weed control at 200 ppm [4]

CCCON(Cc1ccc(-c2noc(C(F)(F)F)n2)cc1)C(=O)C1(C)COC1 [Compound 1.309, 3-methyl-N-propoxy-N-[[4-[5-(trifluoromethyl)-1,2,4-oxadiazol-3-yl]phenyl]methyl]-oxetane-3-carboxamide]
≥ 80%: pest or weed control at 200 ppm [1] | inhibition of growth at 20 ppm [2] | pest or weed control at 200 ppm [3] | pest or weed control at 200 ppm [4]

CCC(=O)N(Cc1ccc(-c2noc(C(F)(F)F)n2)cc1)CC(F)(F)F [Compound 1.582, N-(2,2,2-trifluoroethyl)-N-[[4-[5-(trifluoromethyl)-1,2,4-oxadiazol-3-yl]phenyl]methyl]-propanamide]
≥ 80%: pest or weed control at 200 ppm [1] | inhibition of growth at 20 ppm [2] | pest or weed control at 200 ppm [3] | pest or weed control at 200 ppm [4]

CC(C)N(Cc1ccc(-c2noc(C(F)(F)F)n2)cc1)C(=O)CC#N [Compound 1.683, 2-cyano-N-isopropyl-N-[[4-[5-(trifluoromethyl)-1,2,4-oxadiazol-3-yl]phenyl]methyl]-acetamide]
≥ 80%: pest or weed control at 200 ppm [1] | inhibition of growth at 20 ppm [2] | pest or weed control at 200 ppm [3] | pest or weed control at 200 ppm [4]

CON(Cc1ccc(-c2noc(C(F)(F)F)n2)cc1)C(=O)CC1CC1 [Compound 1.26, 2-cyclopropyl-N-methoxy-N-[[4-[5-(trifluoromethyl)-1,2,4-oxadiazol-3-yl]phenyl]methyl]-acetamide]
≥ 80%: pest or weed control at 200 ppm [1] | inhibition of growth at 20 ppm [2] | pest or weed control at 200 ppm [3] | pest or weed control at 200 ppm [4]

CON(Cc1ccc(-c2noc(C(F)(F)F)n2)cc1)C(=O)N(C)C1COC1 [Compound 3.59, 1-methoxy-3-methyl-3-(oxetan-3-yl)-1-[[4-[5-(trifluoromethyl)-1,2,4-oxadiazol-3-yl]phenyl]methyl]urea]
≥ 80%: pest or weed control at 200 ppm [1] | inhibition of growth at 20 ppm [2] | pest or weed control at 200 ppm [3] | pest or weed control at 200 ppm [4]

CCON(Cc1ccc(-c2noc(C(F)(F)F)n2)cc1)C(=O)C(C)C [Compound 1.614, N-ethoxy-2-methyl-N-[[4-[5-(trifluoromethyl)-1,2,4-oxadiazol-3-yl]phenyl]methyl]-propanamide]
≥ 80%: pest or weed control at 200 ppm [1] | inhibition of growth at 20 ppm [2] | pest or weed control at 200 ppm [3] | pest or weed control at 200 ppm [4]

N#Cc1ccc(CC(=O)N(Cc2ccc(-c3noc(C(F)(F)F)n3)cc2)C2CC2)cc1 [Compound 1.130, 2-(4-cyanophenyl)-N-cyclopropyl-N-[[4-[5-(trifluoromethyl)-1,2,4-oxadiazol-3-yl]phenyl]methyl]-acetamide]
≥ 80%: pest or weed control at 200 ppm [1] | inhibition of growth at 20 ppm [2] | pest or weed control at 200 ppm [3] | pest or weed control at 200 ppm [4]

O=C(C1CCC1)N(CCO)Cc1ccc(-c2noc(C(F)(F)F)n2)cc1 [Compound 1.714, N-(2-hydroxyethyl)-N-[[4-[5-(trifluoromethyl)-1,2,4-oxadiazol-3-yl]phenyl]methyl]-cyclobutane-carboxamide]
≥ 80%: pest or weed control at 200 ppm [1] | inhibition of growth at 20 ppm [2] | pest or weed control at 200 ppm [3] | pest or weed control at 200 ppm [4]

CC(=O)N(Cc1ccc(-c2noc(C(F)(F)F)n2)cc1)C(C)C [Compound 1.687, N-isopropyl-N-[[4-[5-(trifluoromethyl)-1,2,4-oxadiazol-3-yl]phenyl]methyl]-acetamide]
≥ 80%: pest or weed control at 200 ppm [1] | inhibition of growth at 20 ppm [2] | pest or weed control at 200 ppm [3] | pest or weed control at 200 ppm [4]

CC(C)N(Cc1ccc(-c2noc(C(F)(F)F)n2)cc1)C(=O)C1(C#N)CC1 [Compound 1.684, 1 cyano-N-isopropyl-N-[[4-[5-(trifluoromethyl)-1,2,4-oxadiazol-3-yl]phenyl]methyl]-cyclopropane-carboxamide]
≥ 80%: pest or weed control at 200 ppm [1] | inhibition of growth at 20 ppm [2] | pest or weed control at 200 ppm [3] | pest or weed control at 200 ppm [4]

COCCCC(=O)N(Cc1ccc(-c2noc(C(F)(F)F)n2)cc1)OC [Compound 1.59, N,4-dimethoxy-N-[[4-(5-(trifluoromethyl)-1,2,4-oxadiazol-3-yl]phenyl]methyl]-butanamide]
≥ 80%: pest or weed control at 200 ppm [1] | inhibition of growth at 20 ppm [2] | pest or weed control at 200 ppm [3] | pest or weed control at 200 ppm [4]

C#CCN(Cc1ccc(-c2noc(C(F)(F)F)n2)cc1)C(=O)CC#N [Compound 1.199, 2-cyano-N-prop-2-ynyl-N-[[4-[5-(trifluoromethyl)-1,2,4-oxadiazol-3-yl]phenyl]methyl]-acetamide]
≥ 80%: pest or weed control at 200 ppm [1] | inhibition of growth at 20 ppm [2] | pest or weed control at 200 ppm [3] | pest or weed control at 200 ppm [4]

O=C(c1ccccc1Cl)N(Cc1ccc(-c2noc(C(F)(F)F)n2)cc1)C1COC1 [Compound 1.740, 2-chloro-N-(oxetan-3-yl)-N-[[4-[5-(trifluoromethyl)-1,2,4-oxadiazol-3-yl]phenyl]methyl]-benzamide]
≥ 80%: pest or weed control at 200 ppm [1] | inhibition of growth at 20 ppm [2] | pest or weed control at 200 ppm [3] | pest or weed control at 200 ppm [4]

CON(Cc1ccc(-c2noc(C(F)(F)F)n2)cc1)C(=O)NCC1(C#N)CC1 [Compound 3.40, 3-[(1-cyanocyclopropyl)-methyl]-1-methoxy-1-[[4-[5-(trifluoromethyl)-1,2,4-oxadiazol-3-yl]phenyl]methyl]urea]
≥ 80%: pest or weed control at 200 ppm [1] | inhibition of growth at 20 ppm [2] | pest or weed control at 200 ppm [3] | pest or weed control at 200 ppm [4]

CCON(Cc1ccc(-c2noc(C(F)(F)F)n2)cc1)C(=O)C(C)CC (centres unmarked) [Compound 1.622, N-ethoxy-2-methyl-N-[[4-[5-(trifluoromethyl)-1,2,4-oxadiazol-3-yl]phenyl]methyl]-butanamide]
≥ 80%: pest or weed control at 200 ppm [1] | inhibition of growth at 20 ppm [2] | pest or weed control at 200 ppm [3] | pest or weed control at 200 ppm [4]

C#CCN(Cc1ccc(-c2noc(C(F)(F)F)n2)cc1)C(=O)CC(F)(F)F [Compound 1.177, 3,3,3-trifluoro-N-prop-2-ynyl-N-[[4-[5-(trifluoromethyl)-1,2,4-oxadiazol-3-yl]phenyl]methyl]-propanamide]
≥ 80%: pest or weed control at 200 ppm [1] | inhibition of growth at 20 ppm [2] | pest or weed control at 200 ppm [3] | pest or weed control at 200 ppm [4]

CC(C)C(NC(=O)C1CC1)C(=O)N(Cc1ccc(-c2noc(C(F)(F)F)n2)cc1)C1CC1 (centres unmarked) [Compound 1.132, N-[1-[cyclopropyl-[[4-[5-(trifluoromethyl)-1,2,4-oxadiazol-3-yl]phenyl]methyl]-carbamoyl]-2-methyl-propyl]-cyclopropane-carboxamide]
≥ 80%: pest or weed control at 200 ppm [1] | inhibition of growth at 20 ppm [2] | pest or weed control at 200 ppm [3] | pest or weed control at 200 ppm [4]

CCC(C)N(Cc1ccc(-c2noc(C(F)(F)F)n2)cc1)C(=O)CCCOC (centres unmarked) [Compound 1.408, 4-methoxy-N-sec-butyl-N-[[4-[5-(trifluoromethyl)-1,2,4-oxadiazol-3-yl]phenyl]methyl]-butanamide]
≥ 80%: pest or weed control at 200 ppm [1] | inhibition of growth at 20 ppm [2] | pest or weed control at 200 ppm [3] | pest or weed control at 200 ppm [4]

CCCN(Cc1ccc(-c2noc(C(F)(F)F)n2)cc1)C(=O)C(C)CC (centres unmarked) [Compound 1.659, 2-methyl-N-propyl-N-[[4-[5-(trifluoromethyl)-1,2,4-oxadiazol-3-yl]phenyl]methyl]-butanamide]
≥ 80%: pest or weed control at 200 ppm [1] | inhibition of growth at 20 ppm [2] | pest or weed control at 200 ppm [3] | pest or weed control at 200 ppm [4]
